Assay results reported in ChEMBL document CHEMBL4706552, “Discovery of 4-methyl-N-(4-((4-methylpiperazin- 1-yl)methyl)-3-(trifluoromethyl)phenyl)-3-((6-(pyridin-3-yl)-1H-pyrazolo[3,4-d]pyrimidin-4-yl)-oxy)benzamide as a potent inhibitor of RET and its gatekeeper mutant” (Eur J Med Chem, 2020).

System: Mus musculus
Assay: In vivo inhibition of KIF5B-RET fusion protein in BALB/c mouse implanted with KIF5B-RET fusion protein expressing mouse BaF3 cells assessed as reduction in SHC phosphorylation at 30 to 50 mg/kg, iv administered daily for 7 days and measured 4 hrs post last dose by Western blot analysis
Format: functional, organism-based
Conditions: dose 30-50 mg/kg, time 7.0 day

Question: How did the inhibition turn out when `Cc1ccc(C(=O)Nc2ccc(CN3CCN(C)CC3)c(C(F)(F)F)c2)cc1Oc1nc(-c2cccnc2)nc2[nH]ncc12` was run?
Answer: The inhibition was “Dose-dependent effect”.
